Experiment: xn = mol fraction of the nth substance listed
Settings: Fluid (supercritical or subcritical phases), Taylor dispersion method, x1 = 0

| binary diffusion coefficient (313 K, 15000 kPa) | binary diffusion coefficient (313 K, 20000 kPa) | binary diffusion coefficient (313 K, 25000 kPa) | binary diffusion coefficient (313 K, 30000 kPa) | binary diffusion coefficient (313 K, 35000 kPa) | binary diffusion coefficient (323 K, 15000 kPa) | binary diffusion coefficient (323 K, 20000 kPa) | binary diffusion coefficient (323 K, 25000 kPa) | binary diffusion coefficient (323 K, 30000 kPa) | binary diffusion coefficient (323 K, 35000 kPa) | binary diffusion coefficient (333 K, 15000 kPa) | binary diffusion coefficient (333 K, 20000 kPa) | binary diffusion coefficient (333 K, 25000 kPa) | binary diffusion coefficient (333 K, 30000 kPa) | binary diffusion coefficient (333 K, 35000 kPa) | Structure (SMILES) |
| --- | --- | --- | --- | --- | --- | --- | --- | --- | --- | --- | --- | --- | --- | --- | --- |
| 1.01e-08 m2/s | 9.15e-09 m2/s | 8.18e-09 m2/s | 7.54e-09 m2/s | 7.24e-09 m2/s | 1.2e-08 m2/s | 1.02e-08 m2/s | 9.3e-09 m2/s | 8.54e-09 m2/s | 8.07e-09 m2/s | 1.32e-08 m2/s | 1.19e-08 m2/s | 1.04e-08 m2/s | 9.49e-09 m2/s | 8.98e-09 m2/s | CCC(C)c1ccccc1 (stereo not given) [(1-methylpropyl)benzene] + O=C=O |
| 9.63e-09 m2/s | 8.71e-09 m2/s | 7.72e-09 m2/s | 7.24e-09 m2/s | 6.79e-09 m2/s | 1.11e-08 m2/s | 9.92e-09 m2/s | 8.94e-09 m2/s | 8.4e-09 m2/s | 7.57e-09 m2/s | 1.32e-08 m2/s | 1.16e-08 m2/s | 1.02e-08 m2/s | 9.21e-09 m2/s | 8.62e-09 m2/s | CC(C)CCc1ccccc1 [(3-methylbutyl)benzene] + O=C=O |
| 1.02e-08 m2/s | 9.12e-09 m2/s | 8.35e-09 m2/s | 7.6e-09 m2/s | 7.28e-09 m2/s | 1.24e-08 m2/s | 1.03e-08 m2/s | 9.43e-09 m2/s | 8.64e-09 m2/s | 8.07e-09 m2/s | 1.4e-08 m2/s | 1.24e-08 m2/s | 1.07e-08 m2/s | 9.88e-09 m2/s | 9.37e-09 m2/s | CC(C)Cc1ccccc1 [(2-methylpropyl)benzene] + O=C=O |
